Test results published in PubChem BioAssay AID1963838 (Molecular Pharmacology Branch, DTP, NCI, 2024).

System: 855422-203-R-J1-PDC complex spheroid viability
Assay: Anticancer human tumor 855422-203-R-J1-PDC patient-derived bladder carcinoma cell line growth inhibition [POLQ]
Conditions: for IC50: curve of first compound; for viability, T/C: stronger effect = lower value
Protocol: Multicellular complex tumor spheroid response to Polymerase (POL) inhibitors (novobiocin, ART-558, RP6685) in combination with a variety of drugs and investigational agents in selected tumor cell lines
The POL inhibitors (novobiocin, ART-558, and RP6685) were evaluated both individually and in combination with standard of care and investigational anticancer small molecules within a complex spheroid model of solid tumors. . Complex spheroids include a stromal component modeled by human endothelial cells (HUVEC) and fibroblasts modeled by human mesenchymal stem cells (MSCs). The concentration ranges selected for each drug and investigational agent were based upon clinically achievable concentrations if the clinical Cmax of the agent was known.
Compounds. The drugs and investigational agents: novobiocin (NSC847541), ART-558 (NSC835418), RP-6685 (NSC848927), peposertib (NSC802822), ceralasertib (NSC780249), elimusertib (NSC800525), camonsertib (NSC841442), AZD-1390 (NSC803789), olaparib (NSC753686), talazoparib (NSC767125), rucaparib (NSC756644), sotorasib (NSC818433), MRTX-1133 (NSC836407), SN-38 (NSC673596), topotecan (NSC609699), epotoside (NSC141540), doxorubicin (NSC123127), gemcitabine (NSC613327), 5-fluorouracil (NSC19893), paclitaxel (NSC125973), vemurafenib (NSC761431), MSA-2 (NSC828583), SN-011 (NSC837082), adavosertib (NSC754352), prexasertib (NSC758257), carboplatin (NSC241240) and oxaliplatin (NSC266046), were obtained from the National Cancer Institute (NCI) Developmental Therapeutics Program Chemical Repository (21). The FDA-approved anticancer drug set is available from the Developmental Therapeutics Program at https://dtp.cancer.gov/organization/dscb/obtaining/. […] The stock solutions were prepared in dimethyl sulfoxide (DMSO, Sigma-Aldrich, St. Louis, MO, cat. D2650), except for the platinum compounds which were prepared in saline (Quality Biological, Gaithersburg, MD, cat. 114-055-101), at 800-fold the tested concentration and stored at -70 degrees C prior to their use. All drugs and investigational agents were tested over a range starting from a high concentration at or near the clinical Cmax and decreasing in half-log increments. If the clinical Cmax for an agent had not been determined, the highest concentration tested was 10 microM, except for SN-38, which was tested at a high concentration of 1 microM.
Cell Culture. All cells were maintained in an incubator at 37 degrees C and 5% CO2 with 95% humidity. The PDC lines were cultured according to standard operating procedures established by the NCI PDMR (https://pdmr.cancer.gov). Table 3 of the manuscript, lists the cell lines along with the number of the three cell types plated to form the mct-spheroids and media for tumor cell growth. After thawing, all PDC lines, except 997537-175-T-J1-PDC and 415267-285-R-J2-PDC, were cultured in Matrigel-coated flasks prepared with a working solution of 1X Ham's F-12 nutrient mix, without supplementation (Thermo Fisher Scientific, cat. 11765054), 100 U/mL penicillin-streptomycin (Thermo Fisher Scientific, cat. 15140122), and 2.5% Matrigel (Corning Inc., Corning, NY, cat. 354248) for the first three passages. The two PDC lines 997537-175-T-J1-PDC and 415267-285-R-J2-PDC were cultured on uncoated flasks. The 857933-349-R-J2-PDC line was cultured in 6C/Colon 1B media containing advanced DMEM/F-12 (Thermo Fisher Scientific, cat. 12634028), 10 mM HEPES (Thermo Fisher Scientific, cat. 15630080), 1X GlutaMAX supplement (Thermo Fisher Scientific, cat. 35050061), 0.1 mg/mL primocin (InvivoGen, San Diego, CA, cat. ant-pm-2), 10% defined fetal bovine serum, heat inactivated (HyClone Laboratories Inc., Logan, UT, cat. SH30070.03HI), 50% L-WRN conditioned media (ATCC, cat. CRL-3276), 1.25 mM N-Acetyl-L-cysteine (Sigma-Aldrich, cat. A9165), 10 mM nicotinamide (Sigma-Aldrich, cat. N0636), 1X B-27 supplement (Thermo Fisher Scientific, cat. 17504044), 1X N-2 supplement (Thermo Fisher Scientific, cat. […]
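Also: spheroids exposed to compounds for seven days before readout.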

COc1cccc2c1C(=O)c1c(O)c3c(c(O)c1C2=O)CC(O)(C(=O)CO)CC3OC1CC(N)C(O)C(C)O1 (configuration not stated) + COC1C(OC(N)=O)C(O)C(Oc2ccc3c(O)c(NC(=O)c4ccc(O)c(CC=C(C)C)c4)c(=O)oc3c2C)OC1(C)C
IC50 (second compound 0.0316 µM): < 31.6 nM | IC50 (second compound 0.1 µM): < 31.6 nM | IC50 (second compound 0.316 µM): < 31.6 nM | IC50 (second compound 1 µM): < 31.6 nM | IC50 (second compound 3.16 µM): < 31.6 nM | IC50 (second compound 10 µM): < 31.6 nM | viability, T/C (second compound 0.0316 µM, first compound 0.0316 µM): 12.4% | viability, T/C (second compound 0.0316 µM, first compound 0.1 µM): 11.1% | viability, T/C (second compound 0.0316 µM, first compound 0.316 µM): 1.99% | viability, T/C (second compound 0.0316 µM, first compound 1 µM): 0.29% | viability, T/C (second compound 0.0316 µM, first compound 3.16 µM): 0.38% | viability, T/C (second compound 0.0316 µM, first compound 10 µM): 1.85% | viability, T/C (second compound 0.1 µM, first compound 0.0316 µM): 15.1% | viability, T/C (second compound 0.1 µM, first compound 0.1 µM): 10.9% | viability, T/C (second compound 0.1 µM, first compound 0.316 µM): 3.53% | viability, T/C (second compound 0.1 µM, first compound 1 µM): 0.21% | viability, T/C (second compound 0.1 µM, first compound 3.16 µM): 0.32% | viability, T/C (second compound 0.1 µM, first compound 10 µM): 1.27% | viability, T/C (second compound 0.316 µM, first compound 0.0316 µM): 14.5% | viability, T/C (second compound 0.316 µM, first compound 0.1 µM): 10.1% | viability, T/C (second compound 0.316 µM, first compound 0.316 µM): 1.84% | viability, T/C (second compound 0.316 µM, first compound 1 µM): 0.63% | viability, T/C (second compound 0.316 µM, first compound 3.16 µM): 0.37% | viability, T/C (second compound 0.316 µM, first compound 10 µM): 1.74% | viability, T/C (second compound 1 µM, first compound 0.0316 µM): 18.5% | viability, T/C (second compound 1 µM, first compound 0.1 µM): 10.4% | viability, T/C (second compound 1 µM, first compound 0.316 µM): 2.23% | viability, T/C (second compound 1 µM, first compound 1 µM): 0.32% | viability, T/C (second compound 1 µM, first compound 3.16 µM): 0.3% | viability, T/C (second compound 1 µM, first compound 10 µM): 2.92% | viability, T/C (second compound 3.16 µM, first compound 0.0316 µM): 15.4% | viability, T/C (second compound 3.16 µM, first compound 0.1 µM): 10.4% | viability, T/C (second compound 3.16 µM, first compound 0.316 µM): 2.63% | viability, T/C (second compound 3.16 µM, first compound 1 µM): 0.31% | viability, T/C (second compound 3.16 µM, first compound 3.16 µM): 0.58% | viability, T/C (second compound 3.16 µM, first compound 10 µM): 1.48% | viability, T/C (second compound 10 µM, first compound 0.0316 µM): 16.2% | viability, T/C (second compound 10 µM, first compound 0.1 µM): 9.82% | viability, T/C (second compound 10 µM, first compound 0.316 µM): 2.61% | viability, T/C (second compound 10 µM, first compound 1 µM): 0.29% | viability, T/C (second compound 10 µM, first compound 3.16 µM): 0.47% | viability, T/C (second compound 10 µM, first compound 10 µM): 1.58%
